Data on 20 compounds can be found in patent publication US20220071971A1, “MACROCYCLIC COMPOUNDS AND THEIR USE IN THE TREATMENT OF DISEASE” (NOVARTIS AG, priority 2018, published 2022).

This test has as its target T1, delF508-CFTR (Homo sapiens, UniProt P13569, DEL508-508).
T1 construct: expressed in transfected cells
The test is described as follows: Measurement of delF508-CFTR-HRP surface expression in CFBE41o- cells. It counts as cell-based. Conditions: for Emax: CFBE41o-, read-out: DelF508-CFTR-HRP Amax %; for pEC50: HRP-tagged delF508-CFTR surface expression, CFBE41o- cells, 24 h with compound, 10-point curve, highest concentration 10 μM. An excerpt: Measurement of deIF508-CFTR-HRP Surface Expression in CFBE41o-Cells
This assay quantifies the cell surface expressions of the mutant CFTR channel using an extracellular HRP tag.
A cellular assay was developed to measure surface expression of horseradish peroxidase (HRP) tagged delF508-CFTR in the human bronchial epithelial immortalized CFBE41o-cell line (Phuan, P. W., et al, (2014) Molecular Pharmacology 86:42-51). Specifically, the HRP sequence was inserted into the fourth extracellular loop of delF508-CFTR and stably expressed in CFBE41o-cells. Cells were seeded in 384 well plate at a density of 5000 cells/well and incubated at 37° C. for 12 to 24 hours in medium (Gibco MEM #11095, 10% FBS, 10 mM HEPES, […], 200 μg/mL G418, 3 μg/mL Puromycin). The delF508-CFTR-HRP expression was induced with 500 ng/mL doxycycline (Sigma D-9891, dissolved in H2O and sterile filtered) in medium and the cells were incubated at 37° C. for 48 h. Old medium was removed and fresh medium was added containing 500 ng/mL doxycycline and unknown test compound at required test concentration in DMSO, not exceeding 0.5% final DMSO concentration. The highest concentration tested was 10 μM with a 10-point concentration response curve using a 3-fold dilution. After addition of compounds, the cells were incubated for 24 h at 37° C. On the final day, cells were washed four times in PBS containing 1 mM MgCl2 and 0.1 mM CaCl2. HRP-Substrate (SuperSignal ELISA Pico, Fisher #37069) 20 μl/well was added and the luminescence signal was determined (Viewlux, Perkin Elmer). Light was emitted upon addition of exogenous HRP-Substrate only when delF508-CFTR-HRP reached the cell surface and the HRP tag was accessible to the HRP-Substrate (note: HRP-Substrate cannot cross the lipid bilayer to reach delF508-CFTR-HRP misfolded within the cell).
The median activity for the lowest concentration of the compounds on each assay plate was calculated and this value was used to normalize the signal for each well on the respective plate. Three replicates at each concentrations for every compound were run to determine one EC50. The median value was determined and used to calculate compound activities as described below. Effective half maximal values (EC50) were calculated for each compound by performing logistic regression on measured dose-response data points using the equation: […]
where “Y” is the observed activity, “Bottom” is the lowest observed value, “Top” is the highest observed value, and the “Hill coefficient” gives the largest absolute value of the slope. The curve fitting is carried out by a curve fitting program implemented at GNF using Matlab (Mathworks).
The dose response curves also were used to calculate Fold Change (FC) using the equation: […]
Compound efficacy relative to the reference compound 3-(6-(1-(2,2-difluorobenzo[d][1,3]dioxol-5-yl)cyclopropane-1-carboxamido)-3-methylpyridin-2-yl)benzoic acid was determined using the following formula: […]

Where [1] appears, read: efficacy relative to reference compound 3-(6-(1-(2,2-difluorobenzo[d][1,3]dioxol-5-yl)cyclopropane-1-carboxamido)-3-methylpyridin-2-yl)benzoic acid.

pEC50: −log10 of the molar value.

T1 sequence (P13569 with tags, fused parts or gaps DEL508-508): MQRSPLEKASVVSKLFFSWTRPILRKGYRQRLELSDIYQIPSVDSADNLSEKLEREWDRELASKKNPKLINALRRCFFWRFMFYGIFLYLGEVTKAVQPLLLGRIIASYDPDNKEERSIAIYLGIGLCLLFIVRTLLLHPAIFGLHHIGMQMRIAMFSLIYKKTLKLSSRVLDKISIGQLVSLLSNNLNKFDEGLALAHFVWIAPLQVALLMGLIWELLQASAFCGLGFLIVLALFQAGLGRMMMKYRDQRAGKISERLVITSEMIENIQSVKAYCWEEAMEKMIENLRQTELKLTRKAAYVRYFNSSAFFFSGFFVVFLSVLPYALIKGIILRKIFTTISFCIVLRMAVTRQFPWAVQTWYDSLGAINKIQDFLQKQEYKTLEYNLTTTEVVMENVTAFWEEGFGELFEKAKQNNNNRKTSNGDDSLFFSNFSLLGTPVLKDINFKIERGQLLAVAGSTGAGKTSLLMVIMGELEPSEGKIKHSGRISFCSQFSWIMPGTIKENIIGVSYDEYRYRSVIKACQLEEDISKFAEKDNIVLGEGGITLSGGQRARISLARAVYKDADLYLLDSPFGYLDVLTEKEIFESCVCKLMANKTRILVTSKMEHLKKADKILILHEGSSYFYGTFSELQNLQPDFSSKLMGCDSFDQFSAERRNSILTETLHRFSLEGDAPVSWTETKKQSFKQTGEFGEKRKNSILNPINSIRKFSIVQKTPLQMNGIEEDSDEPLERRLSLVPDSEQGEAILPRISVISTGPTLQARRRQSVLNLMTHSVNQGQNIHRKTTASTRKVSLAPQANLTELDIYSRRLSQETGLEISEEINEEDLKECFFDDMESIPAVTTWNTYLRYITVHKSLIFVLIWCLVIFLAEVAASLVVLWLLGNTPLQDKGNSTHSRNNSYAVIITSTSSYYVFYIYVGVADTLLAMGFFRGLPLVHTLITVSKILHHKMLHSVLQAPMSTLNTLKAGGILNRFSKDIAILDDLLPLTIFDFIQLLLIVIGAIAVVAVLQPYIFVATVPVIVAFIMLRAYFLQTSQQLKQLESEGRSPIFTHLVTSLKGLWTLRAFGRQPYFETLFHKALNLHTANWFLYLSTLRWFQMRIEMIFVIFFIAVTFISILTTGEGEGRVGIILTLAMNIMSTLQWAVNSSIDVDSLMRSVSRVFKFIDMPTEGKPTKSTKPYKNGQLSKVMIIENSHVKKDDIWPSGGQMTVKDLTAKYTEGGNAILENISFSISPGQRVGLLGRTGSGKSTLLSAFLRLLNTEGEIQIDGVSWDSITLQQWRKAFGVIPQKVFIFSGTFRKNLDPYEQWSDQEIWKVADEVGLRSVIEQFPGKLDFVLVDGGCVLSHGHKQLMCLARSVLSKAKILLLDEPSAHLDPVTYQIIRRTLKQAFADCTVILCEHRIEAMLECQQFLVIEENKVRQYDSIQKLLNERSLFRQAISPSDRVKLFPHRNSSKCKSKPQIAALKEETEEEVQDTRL

By pEC50 is commonly meant the negative decadic logarithm of the EC50, by convention in mol/L. With `O=S1(=O)Nc2ccc(C(F)(F)F)c(n2)-c2cccnc2O[C@H]2CCC[C@H](CCC2)Oc2cccc1n2` [Compound 104, (4^1s,4^5s)-1^3-(trifluoromethyl)-3,5-dioxa-7-thia-8-aza-1,6(2,6),2(3,2)-tripyridina-4(1,5)-cyclooctanacyclooctaphane 7,7-dioxide], the pEC50 is 6.65. Further, under setting [1], the Emax turned out to be 205%.

With `O=S1(=O)Nc2ccc(Cl)c(n2)-c2ccccc2CCCCCCOc2cccc1n2` [Compound 111, 2^3-chloro-6-oxa-4-thia-3-aza-2,5(2,6)-dipyridina-1(1,2)-benzenacyclododecaphane 4,4-dioxide], the pEC50 is 5.97.

On to `O=S1(=O)Nc2ccc(C(F)(F)F)c(n2)-c2ccccc2CCCCCN(CC(O)CO)c2cccc1n2` (stereo not shown) [Compound 128, 6-(2,3-dihydroxypropyl)-2^3-(trifluoromethyl)-4-thia-3,6-diaza-2,5(2,6)-dipyridina-1(1,2)-benzenacycloundecaphane 4,4-dioxide], for which the pEC50 was 6.56. For the same compound, under setting [1], the Emax is 435%.

As for `O=S1(=O)Nc2ccc(C(F)(F)F)c(n2)-c2ccccc2CCCCCN(CCN2CCCC2)c2cccc1n2` [Compound 122, 6-(2-(pyrrolidin-1-yl)ethyl)-2^3-(trifluoromethyl)-4-thia-3,6-diaza-2,5(2,6)-dipyridina-1(1,2)-benzenacycloundecaphane 4,4-dioxide], the negative logarithm of the EC50 (pEC50) was 5.92. Besides, under setting [1], the Emax is 226%.

In the case of `O=S1(=O)Nc2ccc(C(F)(F)F)c(n2)-c2ccccc2CCCCCCCN(CCCCO)c2cccc1n2` [Compound 40, 6-(4-hydroxybutyl)-2^3-(trifluoromethyl)-4-thia-3,6-diaza-2,5(2,6)-dipyridina-1(1,2)-benzenacyclotridecaphane 4,4-dioxide], the negative-log EC50 (pEC50) was 6.66.

For the compound `O=S1(=O)Nc2ccc(C(F)(F)F)c(n2)-c2ccccc2CCCCCCCN(CCCO)c2cccc1n2` [Compound 39, 6-(3-hydroxypropyl)-2^3-(trifluoromethyl)-4-thia-3,6-diaza-2,5(2,6)-dipyridina-1(1,2)-benzenacyclotridecaphane 4,4-dioxide], the negative-log EC50 (pEC50) was 6.63.

As for `O=C1c2ccccc2C(=O)N1CCCN1CCCCCc2ccccc2-c2nc(ccc2C(F)(F)F)NS(=O)(=O)c2cccc1n2` [Compound 133, 2-(3-(4,4-dioxido-2^3-(trifluoromethyl)-4-thia-3,6-diaza-2,5(2,6)-dipyridina-1(1,2)-benzenacycloundecaphane-6-yl)propyl)isoindoline-1,3-dione], the pEC50 is 6.34. Further, the Emax under setting [1] was 569%.

For `CC1(C)OCC(CN2CCCCCc3ccccc3-c3nc(ccc3C(F)(F)F)NS(=O)(=O)c3cccc2n3)O1` (stereo not shown) [Compound 37, 6-((2,2-dimethyl-1,3-dioxolan-4-yl)methyl)-2^3-(trifluoromethyl)-4-thia-3,6-diaza-2,5(2,6)-dipyridina-1(1,2)-benzenacycloundecaphane 4,4-dioxide], the pEC50 was 6.41. Further, under setting [1], the Emax is 651%.

As for `O=C(O)CCN1CCCCCc2ccccc2-c2cccc(n2)NS(=O)(=O)c2cccc1n2` [Compound 93, 3-(4,4-dioxido-4-thia-3,6-diaza-2,5(2,6)-dipyridina-1(1,2)-benzenacycloundecaphane-6-yl)propanoic acid], the pEC50 was 5.58. Also, the Emax under setting [1] is 179%.

As to `O=S1(=O)Nc2ccc(C(F)(F)F)c(n2)-c2ccccc2CCCCCN(CCN2C[C@H](O)[C@@H](O)C2)c2cccc1n2` [Compound 123, 6-(2-((3S,4S)-3,4-dihydroxypyrrolidin-1-yl)ethyl)-2^3-(trifluoromethyl)-4-thia-3,6-diaza-2,5(2,6)-dipyridina-1(1,2)-benzenacycloundecaphane 4,4-dioxide], the pEC50 is 5.73. Further, the Emax under setting [1] was found to be 308%.

For `O=S1(=O)Nc2ccc(C(F)(F)F)c(n2)-c2cc(F)ccc2CCCCCNc2cccc1n2` [Compound 31, 1^5-fluoro-2^3-(trifluoromethyl)-4-thia-3,6-diaza-2,5(2,6)-dipyridina-1(1,2)-benzenacycloundecaphane 4,4-dioxide], the negative logarithm of the EC50 (pEC50) was 6.21. Under setting [1], the Emax was 580%.

In the case of `O=C(O)CCCN1CCCCCCc2ccc(F)cc2-c2nc(ccc2C(F)(F)F)NS(=O)(=O)c2cccc1n2` [Compound 68, 4-(1^5-fluoro-4,4-dioxido-2^3-(trifluoromethyl)-4-thia-3,6-diaza-2,5(2,6)-dipyridina-1(1,2)-benzenacyclododecaphane-6-yl)butanoic acid], the pEC50 was 6.38.

With `O=S1(=O)Nc2ccc(C(F)(F)F)c(n2)-c2ccccc2CCCCCN(CCCCO)c2cccc1n2` [Compound 25, 6-(4-hydroxybutyl)-2^3-(trifluoromethyl)-4-thia-3,6-diaza-2,5(2,6)-dipyridina-1(1,2)-benzenacycloundecaphane 4,4-dioxide], the pEC50 is 6.57. Also, the Emax under setting [1] amounted to 932%.

Consider “8-hydroxy-2^3-(trifluoromethyl)-4-thia-3,6-diaza-2,5(2,6)-dipyridina-1(1,2)-benzenacycloundecaphane 4,4-dioxide [Compound 38]”, for which the pEC50 is 5.85. In addition, under setting [1], the “DelF508-CFTR-HRP Amax %” value was found to be 224.1%.

Turning to `COC(=O)CN1CCCCCCc2ccccc2-c2nc(ccc2C(F)(F)F)NS(=O)(=O)c2cccc1n2` [Compound 61, methyl 2-(4,4-dioxido-2^3-(trifluoromethyl)-4-thia-3,6-diaza-2,5(2,6)-dipyridina-1(1,2)-benzenacyclododecaphane-6-yl)acetate], the negative logarithm of the EC50 (pEC50) was 6.43.

For `O=S1(=O)Nc2ccc(C(F)(F)F)c(n2)-c2ccccc2CCCCC(CCCO)Oc2cccc1n2` (stereo not shown) [Compound 109, 7-(3-hydroxypropyl)-2^3-(trifluoromethyl)-6-oxa-4-thia-3-aza-2,5(2,6)-dipyridina-1(1,2)-benzenacycloundecaphane 4,4-dioxide], the pEC50 is 6.41. Moreover, under setting [1], the Emax stood at 186%.

As to `O=C(O)CCCN1CCCCc2ccccc2-c2nc(ccc2Cl)NS(=O)(=O)c2cccc1n2` [Compound 91, 4-(2^3-chloro-4,4-dioxido-4-thia-3,6-diaza-2,5(2,6)-dipyridina-1(1,2)-benzenacyclodecaphane-6-yl)butanoic acid], the pEC50 was 5.56. The Emax under setting [1] was 721%.

As to `O=C(O)CCCCN1CCCCc2ccccc2-c2nc(ccc2C(F)(F)F)NS(=O)(=O)c2cccc1n2` [Compound 80, 5-(4,4-dioxido-2^3-(trifluoromethyl)-4-thia-3,6-diaza-2,5(2,6)-dipyridina-1(1,2)-benzenacyclodecaphane-6-yl)pentanoic acid], the negative-log EC50 (pEC50) is 5.85.

As to `O=C(O)CCN1CCCCCc2ccc(F)cc2-c2nc(ccc2C(F)(F)F)NS(=O)(=O)c2cccc1n2` [Compound 97, 3-(1^5-fluoro-4,4-dioxido-2^3-(trifluoromethyl)-4-thia-3,6-diaza-2,5(2,6)-dipyridina-1(1,2)-benzenacycloundecaphane-6-yl)propanoic acid], the pEC50 was 6.13. In addition, the Emax under setting [1] came to 728%.

Turning to `O=C1C2CCCCC2C(=O)N1CCCN1CCCCCc2ccccc2-c2nc(ccc2C(F)(F)F)NS(=O)(=O)c2cccc1n2` (stereo not shown) [Compound 134, 2-(3-(4,4-dioxido-2^3-(trifluoromethyl)-4-thia-3,6-diaza-2,5(2,6)-dipyridina-1(1,2)-benzenacycloundecaphane-6-yl)propyl)hexahydro-1H-isoindole-1,3(2H)-dione], the negative-log EC50 (pEC50) is 6.22. Further, the Emax under setting [1] was 410%.
